Measured values: PubChem BioAssay (NCI)
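Where inhibition never reached the appropriate level, the endpoint shown equals the highest concentration tested. Otherwise, values were interpolated linearly from a five-concentration, 48-hour dose response in 96-well plates. TGI is the concentration that stops growth completely.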

What was measured:
Experiment in all cases: growth of human tumour cells (NCI), 48 h
[1] = test system: A498 renal
[2] = test system: EKVX NSCLC
[3] = test system: HCT-15 colon
[4] = test system: IGROV1 ovarian
[5] = test system: M14 melanoma
[6] = test system: NCI-H23 lung
[7] = test system: OVCAR-3 ovarian
[8] = test system: RPMI-8226 leukemia
[9] = test system: SK-OV-3 ovarian
[10] = test system: SW-620 colon
[11] = test system: UO-31 renal
[12] = test system: RXF 393 renal
[13] = test system: SNB-75 CNS

SMILES | TGI [1] | TGI [2] | TGI [3] | TGI [4] | TGI [5] | TGI [6] | TGI [7] | TGI [8] | TGI [9] | TGI [10] | TGI [11] | TGI [12] | TGI [13]
CCOC(=O)/C(=C/c1ccccc1)N(CC)CC | > 100 µM | > 100 µM | > 100 µM | > 100 µM | > 100 µM | > 100 µM | > 100 µM | > 100 µM | > 100 µM | > 100 µM | > 100 µM |  | 
CN(C)CCSC(=Nc1ccccc1)n1cccc1 |  |  | > 100 µM | > 100 µM | > 100 µM | > 100 µM | > 100 µM | > 100 µM | > 100 µM | > 100 µM | > 100 µM | > 100 µM | 96.4 µM
N#CC(C(=S)Nc1ccccc1)=C1Nc2ccccc2N1 | > 10 µM | > 10 µM | > 10 µM |  | > 10 µM | > 10 µM | > 10 µM | > 10 µM | > 10 µM | > 10 µM | > 10 µM |  | > 10 µM
COc1cc(CO)cc2c1[nH]c1ccccc12 |  |  | > 25 µM | > 25 µM | > 25 µM |  | > 25 µM | > 25 µM | > 25 µM | > 25 µM | > 25 µM | > 25 µM | 
CC(C)C1COC(C(C)(C)C2=N[C@@H](C(C)C)CO2)=N1 (some centres undefined) |  | > 100 µM | > 100 µM | > 100 µM | > 100 µM | > 100 µM | > 100 µM | > 100 µM | > 100 µM | > 100 µM | > 100 µM | > 100 µM | > 100 µM
CCOc1cc2cnc3c4cc(OC)c(OC)cc4ccc3c2cc1OC |  | > 100 µM | > 100 µM | > 100 µM | > 100 µM | > 100 µM | > 100 µM | > 100 µM | > 100 µM | > 100 µM | > 100 µM | > 100 µM | > 100 µM
O[C@]12c3ccccc3C1CCCC2N1CCOCC1 (some centres undefined) |  | > 100 µM | > 100 µM |  | > 100 µM | > 100 µM |  | > 100 µM | > 100 µM | > 100 µM | > 100 µM | > 100 µM | > 100 µM
COc1ccc(C2S/C(=C\c3ccc([N+](=O)[O-])cc3)C(=O)N2NC(=O)Cc2ccccc2)cc1 (centres undefined) | > 100 µM |  | > 100 µM | > 100 µM | > 100 µM | > 100 µM |  | > 100 µM | > 100 µM | > 100 µM | > 100 µM | > 100 µM | > 100 µM
COc1cc2c(cc1OC)C(Cc1cc(Br)c(OC)c(OC)c1)=[N+](C)CC2 |  | > 100 µM | > 100 µM | > 100 µM | > 100 µM | > 100 µM | > 100 µM | > 100 µM | > 100 µM | > 100 µM | > 100 µM | > 100 µM | > 100 µM
CC1(C)OC2C(O1)[C@H]1OC(C(Cl)(Cl)Cl)=N[C@H]1C(I)[C@H]2N1C(=O)c2ccccc2C1=O (some centres undefined) | > 100 µM | > 100 µM | > 100 µM | 61.7 µM | > 100 µM | > 100 µM |  | > 100 µM |  | > 100 µM |  | 88.6 µM | > 100 µM
O=C(c1nc2ccc(Cl)cc2[nH]c1=O)C(O)c1cccc([N+](=O)[O-])c1 (centres undefined) | > 100 µM | > 100 µM | > 100 µM | > 100 µM | > 100 µM | > 100 µM | > 100 µM | > 100 µM | > 100 µM |  | > 100 µM | > 100 µM | > 100 µM
COc1ccc([C@H]2[C@@H]3CCc4ccccc4C3=NN2C(N)=S)cc1OC | > 100 µM | > 100 µM | > 100 µM | > 100 µM | > 100 µM | > 100 µM | > 100 µM | > 100 µM | > 100 µM | > 100 µM | > 100 µM | > 100 µM | 
C[C@@H]1C[C@@H]2C(=O)N(c3ccccc3)C(=O)[C@@H]2c2[nH]c3ccc(Br)cc3c21 | > 100 µM | > 100 µM | > 100 µM | > 100 µM | > 100 µM | > 100 µM | 51.7 µM |  | 44.5 µM | > 100 µM | > 100 µM | 78.5 µM | 41.9 µM
O=C(c1nc2ccc(Cl)cc2[nH]c1=O)C(O)c1ccco1 (centres undefined) |  | > 100 µM | 37.1 µM | > 100 µM | > 100 µM | > 100 µM | > 100 µM |  | > 100 µM | > 100 µM | > 100 µM | > 100 µM | > 100 µM
O=C(Cc1ccccc1)N/N=C(/c1nc2ccc([N+](=O)[O-])cc2[nH]c1=O)C(O)c1ccco1 (centres undefined) | > 100 µM | > 100 µM | > 100 µM | > 100 µM | > 100 µM | > 100 µM |  | > 100 µM | > 100 µM | > 100 µM | > 100 µM |  | > 100 µM
CC(=O)OCc1ncccc1C(OC(C)=O)OC(C)=O | > 100 µM | > 100 µM | > 100 µM | > 100 µM | > 100 µM | > 100 µM | > 100 µM |  | > 100 µM | > 100 µM | > 100 µM | > 100 µM | > 100 µM
